Results as given in US6737241B2, “Methods for screening for transdominant intracellular effector peptides and RNA molecules” (Rigel Pharmaceuticals, Inc., priority 1996, dated 2004).

Legend:
PKCa = PKCa localization by immunohistochemistry after PMA stimulation; assay type: cell-based, Murine
3T3 cells [1] = assay: Apotag / TUNEL assay of apoptosis induced by hTNFa and cycloheximide; assay type: cell-based; settings: expressed in 3T3 cells from an MSCV retroviral promoter; hTNFa 50 ng/ml + cycloheximide 6 hours, harvested at 24 hours
Description: Apotag assay: TUNEL (TdT-mediated dUTP-fluorescein nick end labeling) Boehringer Mannheim kit, catalog no. 168795
3T3 cells transiently infected with either MFGLacZ, BCL2, or […] plasmids were grown to 50% confluence at the time of induction with hTNFa (50 ng/ml media) and cycloheximide ([…] media) for 6 hours. Cells were washed at 6 hours and harvested at 24 hours after induction. Cells were harvested by pooling all media from cells (in order to collect any apoptotic, floating cells) with the washings and trypsinized cells. The cells were spun and washed with PBS containing 1% BSA, transferred to an eppendorf tube and the wash repeated once.
Cells were fixed in 4% paraformaldehyde at room temperature for 30 minutes, washed in PBS/BSA, then resuspended in permeabilisation buffer for 2 minutes on ice. After permeabilisation, cells were washed twice in PBS/BSA and incubated at 37° C. for 1 hour with labeling buffer containing fluoresceinated dUTP, unlabeled nucleotide mixture and terminal deoxynucleotidyl transferase (TdT). Cells were washed twice with PBS/BSA, resuspended in PBS/BSA and transferred to a FACS tube for analysis. Samples were also visualized under the fluorescence microscope.

3T3 cells [2] = assay: Propidium iodide staining of fixed cells to assay for apoptosis (TNF/CXH); assay type: cell-based; settings: expressed in 3T3 cells
Description: Propidium Iodide staining of fixed cells to assay for apoptosis: (Sherwood and Schimke, Methods in Cell Biology, 46:77-87, 1995) 3T3 cells transiently infected with MFGLacZ, Bcl2, or CPP32 were plated and treated with TNF/CXH as described above, and harvested and washed as above. Cells were then resuspended in 70% ethanol in PBS at 4° C. and kept at 4° C. overnight. When ready to FACS, cells were stained with propidium iodide as follows. Cells were spun at 14,000 RPM for 10 seconds and washed once with PBS/BSA. Cells were then resuspended in […] staining solution (PBS with 50 mg/ml RNase A (DNase-free) with 10 mg/ml propidium iodide) and incubated at 37° C for at least 1 hour. Cells were then pelleted and resuspended in PBS/BSA solution containing 10 mg/ml propidium iodide and analyzed by FACS scanning.

CPP32 = biological target: T1, CPP32 (Mus musculus, UniProt P70677); assay: Enzymatic assay of CPP32 activity (DEVD-pNA cleavage) in extracts of TNF/CXH-stimulated 3T3 cells; assay type: biochemical; settings: cell extracts, 30 min to 4 hours after TNF/CXH; control WIN cells rise at 2 hours
T1 construct: endogenous in cells; host or cells: 3T3 cells (lysate after TNF/cycloheximide stimulation)
T1 sequence (P70677 29-175 limits assumed): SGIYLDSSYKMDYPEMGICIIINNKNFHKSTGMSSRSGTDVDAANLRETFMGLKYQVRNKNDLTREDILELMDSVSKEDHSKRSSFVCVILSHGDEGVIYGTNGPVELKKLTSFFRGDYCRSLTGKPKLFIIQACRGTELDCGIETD
T1 sequence (P70677 176-277 limits assumed): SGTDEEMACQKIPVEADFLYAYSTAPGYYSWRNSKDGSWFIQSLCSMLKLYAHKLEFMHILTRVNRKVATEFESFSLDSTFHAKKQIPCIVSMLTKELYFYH
Description: Enzymatic Assay of CPP32 activity: CPP32 Assay Kit: Clontech CPP32 Colorimetric Assay Kit (Cat. No. K2027-2): 3T3 cells were infected with the vectors described in Part I, section C, and selected in G418 media prior to assay. 6-well plates of 3T3 cells at near confluence were stimulated with TNF/CXH as described above and harvested at 30 min, 1, 2 and 4 hours after stimulation as follows. Cells were trypsinized and collected as described above. After transfering to an eppendorf tube, cells were spun and resuspended in […] chilled Cell Lysis Buffer. Cells were incubated for 10 minutes on ice, then […] of 2× Reaction Buffer containing DTT was added to each tube. 5 ml of the calorimetric conjugated substrate (DEVD-paranitroanilide, 50 mM final concentration) was added to each tube and incubated at 37° C. for 30 minutes. Samples were transferred to a 96 well plate and read on a spectrophotometer at O.D. of 405. […] By 4 hours, cells have begun to die and the activity is decreased. […] In the case of BCL2, it should be due to inhibition of apoptosis upstream of the enzyme. With CPP32 inhibitor peptide, it should be due to direct inhibition of enzymatic activity. These in vitro results are consistent with the results seen in cell death assays described above.

cells = assay: Staurosporin induced apoptosis in cells expressing the peptide with a retrovirus; assay type: cell-based; settings: peptide expressed in cells with a retrovirus
Jurkat EcoR cells = assay: IgM anti-Fas (CH-11) selection of retrovirus-transduced Jurkat cells; settings: peptide expressed in cells with a retrovirus
Description: A sterile Acrodisc 0.45 micron syringe filter (Gelman Sciences) was attached to the end of a 10 ml sterile syringe and the injection stopper sterilely removed from the syringe barrel. At 48 hours post-transfection, the virus supernatant was removed from the Phoenix cells and added to the syringe barrel. The stopper was replaced and the virus supernatant was ejected dropwise into a clean, sterile conical tube. […] Polybrene was added to each viral supernatant (Sigma; 2.5 mg/ml in ddH20=500×; store at −20° C.) to a final concentration of 5 mg/ml. 4.5×10^6 Jurkat EcoR cells (Jurkat cells stably expressing the ecotropic retrovirus receptor) were pelleted for 1400 rpm for five min and resuspended in 9 mls of the OL-2 library virus supernatant. The cells were distributed in aliquots of 1 ml, or 5×10^5 cells, into the wells of a 24 well plate. 1.5×10^6 Jurkat EcoR cells were similarly treated with 3 mls each of the lacZ viral supernatant and the OL-1 viral supernatant. Each cell plate was wrapped in parafilm, placed in a microplate carrier (DuPont) and centrifuged at 2500 rpm for 90 min at 32° C. in a DuPont/Sorvall RT 6000B table top centrifuge. After centrifugation, the cells were observed under a microscope. […] The parafilm was removed from the plates, which were placed at 32° C. […]

NIH 3T3 cells = assay: Staurosporine induction of apoptosis (ethidium bromide/acridine orange double staining); assay type: cell-based; settings: 1 uM in serum-free media, within 24 hours
Description: D. Staurosporine selection. Staurosporine, an alkaloid from Streptomyces sp., is a potent, broad spectrum inhibitor of protein kinases which binds the ATP site. Addition of 1 uM staurosporine in serum-free media to NIH 3T3 cells induced >99% apoptosis within 24 hours, as determined by ethidium bromide/acridine orange double staining as described for the Fas selection.

Compound: GKQKTKTIKGPP
- translocation of PKCa to the nucleus (PKCa): able to specifically inhibit translocation of activated PKCa

Compound: Bcl2: Bcl2 protein expressed from a retroviral vector; known inhibitor of apoptosis, positive control
- inhibition of apoptosis induced by tumor necrosis factor and cycloheximide (TUNEL) (3T3 cells [1]): able to inhibit apoptosis
- inhibition of apoptosis induced by tumor necrosis factor and cycloheximide (PI staining) (3T3 cells [2]): able to inhibit apoptosis
- CPP32 enzyme activity (cleavage of DEVD-pNA) (CPP32): this rise in activity is not seen

Compound: MGKRKGDEVDGVGPP [OL-1]
- inhibition of Staurosporin induced apoptosis (cells): inhibit
- inhibition of Fas-mediated apoptosis (Jurkat EcoR cells): inhibit

Compound: CN[C@@H]1C[C@H]2O[C@@](C)([C@@H]1OC)n1c3ccccc3c3c4c(c5c6ccccc6n2c5c31)C(=O)NC4 [staurosporine, Staurosporine]
- apoptosis (NIH 3T3 cells): > 99%
